The values below come from the supplement of paper PMC12137928.

The subject of the assay is HCT116. The note with it: 72 h. A digest of the protocol:
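HCT116 cells were plated at 250 per well in 1536-well plates and allowed 5 h to attach. CellTiter-Glo luminescence was normalized to vehicle as 0% and positive control as -100%, followed by pattern correction. Four-parameter Hill fits provided IC50 and maximal efficacy.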

Counter-ions that a name gives are not always drawn.

In the case of `CN1C2=CC(=O)/C(=N\NC(N)=O)C=C2CC1S(=O)(=O)O` (configuration not stated) [Carbazochrome sodium sulfonate], the IC50 cell viability was more than 45.8 µM (ICRF193 0 nM) and more than 45.8 µM (ICRF193 200 nM).
The compound `CC1(C)S[C@@H]2[C@H](NC(=O)C(C(=O)O)c3ccccc3)C(=O)N2[C@H]1C(=O)O` (some centres not stated) [Carbenicillin disodium] displayed an IC50 cell viability (ICRF193 0 nM) of more than 45.8 µM and an IC50 cell viability (ICRF193 200 nM) of more than 45.8 µM.
For `CC1(C)S[C@@H]2[C@H](NC(=O)C(C(=O)Oc3ccc4c(c3)CCC4)c3ccccc3)C(=O)N2[C@H]1C(=O)O` (some centres not stated) [Carbenicillin indanyl], the IC50 cell viability reads like this: (ICRF193 0 nM) more than 45.8 µM; (ICRF193 200 nM) more than 45.8 µM.
Consider `CC1(C)[C@@H](OC(=O)CCC(=O)O)CC[C@]2(C)[C@H]3C(=O)C=C4[C@@H]5C[C@@](C)(C(=O)O)CC[C@]5(C)CC[C@@]4(C)[C@]3(C)CC[C@@H]12` [Carbenoxolone sodium], for which the IC50 cell viability was more than 45.8 µM (ICRF193 0 nM) and more than 45.8 µM (ICRF193 200 nM).
`CCN(CC)CCOCCOC(=O)C1(c2ccccc2)CCCC1` [Carbetapentane]: the IC50 cell viability is more than 45.8 µM (ICRF193 0 nM) and more than 45.8 µM (ICRF193 200 nM).
For the compound `C[C@@](Cc1ccc(O)c(O)c1)(NN)C(=O)O` [Carbidopa], the IC50 cell viability is more than 45.8 µM (ICRF193 0 nM) and more than 45.8 µM (ICRF193 200 nM).
With `CCOC(=O)n1ccn(C)c1=S` [Carbimazole], the IC50 cell viability is more than 45.8 µM (ICRF193 0 nM) and more than 45.8 µM (ICRF193 200 nM).
On to `CN(C)CCOC(c1ccc(Cl)cc1)c1ccccn1` (configuration not stated) [Carbinoxamine maleate], for which the IC50 cell viability reads like this: (ICRF193 0 nM) more than 45.8 µM; (ICRF193 200 nM) more than 45.8 µM.
For `N[C@@H](CSCC(=O)O)C(=O)O` [Carbocysteine], the IC50 cell viability is, setting by setting: (ICRF193 0 nM) more than 45.8 µM; (ICRF193 200 nM) more than 45.8 µM.
Turning to `COC(COC(N)=O)C1=C(N2CC2)C(=O)C(C)=C(N2CC2)C1=O` (configuration not stated) [Carboquone], the IC50 cell viability is more than 45.8 µM (ICRF193 0 nM) and more than 45.8 µM (ICRF193 200 nM).
Take `CN(C)C(=O)N[C@H]1CC[C@H](CCN2CCN(c3cccc(Cl)c3Cl)CC2)CC1` [Cariprazine]: the IC50 cell viability reads like this: (ICRF193 0 nM) more than 45.8 µM; (ICRF193 200 nM) more than 45.8 µM.
Take `O=NN(CCCl)C(=O)NCCCl` [Carmustine]: the IC50 cell viability is, setting by setting: (ICRF193 0 nM) more than 45.8 µM; (ICRF193 200 nM) more than 45.8 µM.
On to `CC(C(=O)O)c1ccc2c(c1)[nH]c1ccc(Cl)cc12` (configuration not stated) [Carprofen], for which the IC50 cell viability by setting is: (ICRF193 0 nM) more than 45.8 µM; (ICRF193 200 nM) more than 45.8 µM.
Take `COC(=O)CCC[N+](C)(C)C` [Carpronium chloride]: the IC50 cell viability is, setting by setting: (ICRF193 0 nM) more than 45.8 µM; (ICRF193 200 nM) more than 45.8 µM.
As to `CC(C)(C)NCC(O)COc1cccc2c1CCC(=O)N2` (configuration not stated) [Carteolol hydrochloride], the IC50 cell viability runs as follows: (ICRF193 0 nM) more than 45.8 µM; (ICRF193 200 nM) more than 45.8 µM.
`CC[C@H](C)C[C@H](C)CCCCCCCCC(=O)N[C@H]1C[C@@H](O)[C@@H](NCCN)NC(=O)[C@@H]2[C@@H](O)CCN2C(=O)[C@H]([C@H](O)CCN)NC(=O)[C@H]([C@H](O)[C@@H](O)c2ccc(O)cc2)NC(=O)[C@@H]2C[C@@H](O)CN2C(=O)[C@H]([C@@H](C)O)NC1=O` [Caspofungin Acetate]: the IC50 cell viability is, setting by setting: (ICRF193 0 nM) more than 45.8 µM; (ICRF193 200 nM) more than 45.8 µM.
Consider `CC(=O)OCC1=C(C(=O)O)N2C(=O)[C@@H](NC(=O)CC#N)[C@H]2SC1` [Cefacetrile], for which the IC50 cell viability is, setting by setting: (ICRF193 0 nM) more than 45.8 µM; (ICRF193 200 nM) more than 45.8 µM.
As to `CC1=C(C(=O)O)N2C(=O)[C@@H](NC(=O)[C@H](N)c3ccc(O)cc3)[C@H]2SC1` [Cefadroxil], the IC50 cell viability by setting is: (ICRF193 0 nM) more than 45.8 µM; (ICRF193 200 nM) more than 45.8 µM.
`NC(=O)c1cc[n+](CC2=C(C(=O)[O-])N3C(=O)[C@@H](NC(=O)Cc4cccs4)[C@H]3SC2)cc1` [Cefalonium]: the IC50 cell viability reads like this: (ICRF193 0 nM) more than 45.8 µM; (ICRF193 200 nM) more than 45.8 µM.
Compound `Cn1nnnc1SCC1=C(C(=O)O)N2C(=O)[C@@H](NC(=O)[C@H](OC=O)c3ccccc3)[C@H]2SC1` [Cefamandole (nafate)] returned an IC50 cell viability (ICRF193 0 nM) of more than 45.8 µM and an IC50 cell viability (ICRF193 200 nM) of more than 45.8 µM.
As for `N[C@@H](C(=O)N[C@@H]1C(=O)N2C(C(=O)O)=C(CSc3c[nH]nn3)CS[C@H]12)c1ccc(O)cc1` [Cefatrizine], the IC50 cell viability runs as follows: (ICRF193 0 nM) more than 45.8 µM; (ICRF193 200 nM) more than 45.8 µM.
For the compound `Cc1nnc(SCC2=C(C(=O)O)N3C(=O)[C@@H](NC(=O)Cn4cnnn4)[C@H]3SC2)s1` [Cefazolin], the IC50 cell viability is, setting by setting: (ICRF193 0 nM) more than 45.8 µM; (ICRF193 200 nM) more than 45.8 µM.
On to `CCN1CCN(C(=O)N[C@@H](C(=O)N[C@]2(OC)C(=O)N3C(C(=O)O)=C(CSc4nnnn4C)CS[C@@H]32)[C@H](C)O)C(=O)C1=O` [Cefbuperazone], for which the IC50 cell viability by setting is: (ICRF193 0 nM) more than 45.8 µM; (ICRF193 200 nM) more than 45.8 µM.
Regarding `CC/C=C(\C(=O)N[C@@H]1C(=O)N2C(C(=O)OCOC(=O)C(C)(C)C)=C(COC(N)=O)CS[C@H]12)c1csc(N)n1` [Cefcapene pivoxil hydrochloride], the IC50 cell viability (ICRF193 0 nM) is more than 45.8 µM and the IC50 cell viability (ICRF193 200 nM) was more than 45.8 µM.
Regarding `C=CC1=C(C(=O)O)N2C(=O)[C@@H](NC(=O)/C(=N\O)c3csc(N)n3)[C@H]2SC1` [Cefdinir], the IC50 cell viability (ICRF193 0 nM) was more than 45.8 µM and the IC50 cell viability (ICRF193 200 nM) was more than 45.8 µM.
Turning to `CO/N=C(\C(=O)N[C@@H]1C(=O)N2C(C(=O)OCOC(=O)C(C)(C)C)=C(/C=C\c3scnc3C)CS[C@H]12)c1csc(N)n1` [Cefditoren (Pivoxil)], the IC50 cell viability was more than 45.8 µM (ICRF193 0 nM) and more than 45.8 µM (ICRF193 200 nM).
`CO/N=C(/C(=O)N[C@@H]1C(=O)N2C(C(=O)OCOC(=O)C(C)(C)C)=C(C)CS[C@H]12)c1csc(N)n1` [Cefetamet pivoxil HCl]: the IC50 cell viability runs as follows: (ICRF193 0 nM) more than 45.8 µM; (ICRF193 200 nM) more than 45.8 µM.
`C=CC1=C(C(=O)O)N2C(=O)[C@@H](NC(=O)/C(=N\OCC(=O)O)c3csc(N)n3)[C@H]2SC1` [Cefixime]: the IC50 cell viability reads like this: (ICRF193 0 nM) more than 45.8 µM; (ICRF193 200 nM) more than 45.8 µM.
In the case of `CO[C@@]1(NC(=O)CSCC#N)C(=O)N2C(C(=O)O)=C(CSc3nnnn3C)CS[C@@H]21` [Cefmetazole sodium], the IC50 cell viability runs as follows: (ICRF193 0 nM) more than 45.8 µM; (ICRF193 200 nM) more than 45.8 µM.
`CO[C@@]1(NC(=O)CSC[C@@H](N)C(=O)O)C(=O)N2C(C(=O)O)=C(CSc3nnnn3C)CS[C@@H]21` [Cefminox sodium]: the IC50 cell viability is, setting by setting: (ICRF193 0 nM) more than 45.8 µM; (ICRF193 200 nM) more than 45.8 µM.
As to `CCN1CCN(C(=O)N[C@@H](C(=O)N[C@@H]2C(=O)N3C(C(=O)O)=C(CSc4nnnn4C)CS[C@H]23)c2ccc(O)cc2)C(=O)C1=O` [Cefoperazone sodium], the IC50 cell viability (ICRF193 0 nM) was more than 45.8 µM and the IC50 cell viability (ICRF193 200 nM) is more than 45.8 µM.
For the compound `NCc1ccccc1CC(=O)N[C@@H]1C(=O)N2C(C(=O)O)=C(CSc3nnnn3CC(=O)O)CS[C@H]12` [Ceforanide], the IC50 cell viability was more than 45.8 µM (ICRF193 0 nM) and more than 45.8 µM (ICRF193 200 nM).
Turning to `CO/N=C(\C(=O)N[C@@H]1C(=O)N2C(C(=O)[O-])=C(C[n+]3ccc(N)n3CCO)CS[C@H]12)c1csc(N)n1` [Cefoselis (sulfate)], the IC50 cell viability is more than 45.8 µM (ICRF193 0 nM) and more than 45.8 µM (ICRF193 200 nM).
Consider `CO/N=C(\C(=O)N[C@@H]1C(=O)N2C(C(=O)O)=C(COC(C)=O)CS[C@H]12)c1csc(N)n1` [Cefotaxime sodium salt], for which the IC50 cell viability by setting is: (ICRF193 0 nM) more than 45.8 µM; (ICRF193 200 nM) more than 45.8 µM.
Turning to `CN(C)CCn1nnnc1SCC1=C(C(=O)O)N2C(=O)[C@@H](NC(=O)Cc3csc(N)n3)[C@H]2SC1` [Cefotiam hydrochloride], the IC50 cell viability reads like this: (ICRF193 0 nM) more than 45.8 µM; (ICRF193 200 nM) more than 45.8 µM.
The compound `CO[C@@]1(NC(=O)Cc2cccs2)C(=O)N2C(C(=O)O)=C(COC(N)=O)CS[C@@H]21` [Cefoxitin] came in with an IC50 cell viability (ICRF193 0 nM) of more than 45.8 µM and an IC50 cell viability (ICRF193 200 nM) of more than 45.8 µM.
For the compound `CO/N=C(\C(=O)N[C@@H]1C(=O)N2C(C(=O)[O-])=C(C[n+]3ccn4ncccc43)CS[C@H]12)c1nsc(N)n1` [Cefozopran hydrochloride], the IC50 cell viability is, setting by setting: (ICRF193 0 nM) more than 45.8 µM; (ICRF193 200 nM) more than 45.8 µM.
In the case of `Cc1cc(O)c(C(=O)N[C@@H](C(=O)N[C@@H]2C(=O)N3C(C(=O)O)=C(CSc4nnnn4C)CS[C@H]23)c2ccc(O)cc2)cn1` [Cefpiramide (sodium)], the IC50 cell viability is more than 45.8 µM (ICRF193 0 nM) and more than 45.8 µM (ICRF193 200 nM).
In turn, `CC=CC1=C(C(=O)O)N2C(=O)[C@@H](NC(=O)[C@H](N)c3ccc(O)cc3)[C@H]2SC1` [Cefprozil] returned an IC50 cell viability (ICRF193 0 nM) of more than 45.8 µM and an IC50 cell viability (ICRF193 200 nM) of more than 45.8 µM.
Turning to `COC1=C(C(=O)O)N2C(=O)[C@@H](NC(=O)[C@H](N)C3=CCC=CC3)[C@H]2SC1` [Cefroxadine], the IC50 cell viability reads like this: (ICRF193 0 nM) more than 45.8 µM; (ICRF193 200 nM) more than 45.8 µM.
As for `NC(=O)c1cc[n+](CC2=C(C(=O)[O-])N3C(=O)[C@@H](NC(=O)[C@@H](c4ccccc4)S(=O)(=O)O)[C@H]3SC2)cc1` [Cefsulodin Sodium Salt], the IC50 cell viability was more than 45.8 µM (ICRF193 0 nM) and more than 45.8 µM (ICRF193 200 nM).
Turning to `CC(C)(O/N=C(\C(=O)N[C@@H]1C(=O)N2C(C(=O)[O-])=C(C[n+]3ccccc3)CS[C@H]12)c1csc(N)n1)C(=O)O` [Ceftazidime], the IC50 cell viability is more than 45.8 µM (ICRF193 0 nM) and more than 45.8 µM (ICRF193 200 nM).
With `CO/N=C(\C(=O)N[C@@H]1C(=O)N2C(C(=O)O)=C(Cn3nnc(C)n3)CS[C@H]12)c1csc(N)n1` [Cefteram], the IC50 cell viability was more than 45.8 µM (ICRF193 0 nM) and more than 45.8 µM (ICRF193 200 nM).
For the compound `O=C(Cn1cnnn1)N[C@@H]1C(=O)N2C(C(=O)O)=C(CSc3nncs3)CS[C@H]12` [Ceftezole sodium], the IC50 cell viability (ICRF193 0 nM) was more than 45.8 µM and the IC50 cell viability (ICRF193 200 nM) was more than 45.8 µM.
In the case of `CO/N=C(\C(=O)N[C@@H]1C(=O)N2C(C(=O)O)=C(CSc3nc(=O)c(O)nn3C)CS[C@H]12)c1csc(N)n1` [Ceftriaxone disodium trihydrate], the IC50 cell viability is more than 45.8 µM (ICRF193 0 nM) and more than 45.8 µM (ICRF193 200 nM).
Consider `CO/N=C(\C(=O)N[C@@H]1C(=O)N2C(C(=O)OC(C)OC(C)=O)=C(COC(N)=O)CS[C@H]12)c1ccco1` (some centres not stated) [Cefuroxime Axetil], for which the IC50 cell viability by setting is: (ICRF193 0 nM) more than 45.8 µM; (ICRF193 200 nM) more than 45.8 µM.
